# From the METLIN SMRT retention time set (Domingo-Almenara et al. 2019)
# Test: gradient 5% acetonitrile 3 min, to 50% in 2 min, to 85% in 15 min, held 3 min, 100 µL/min
# Settings: column: Zorbax Extend-C18 2.1 x 50 mm; eluents: water / acetonitrile, 0.1% formic acid
# In short: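 A Zorbax Extend-C18 column (2.1 × 50 mm, 1.8 μm) run at 100 μL/min with water and acetonitrile, both containing 0.1% formic acid, separated mixtures of ~100 pure standards. The HPLC was coupled to a quadrupole time-of-flight mass spectrometer operated in positive and negative ionization mode, with dead and dwell volumes of 40 μL and 900 μL. Each retention time was taken from a computationally picked adduct peak that was then manually inspected.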
row,SMILES,RP-LC retention time
1,CCOC(=O)C(C)Sc1nnc(NC(=O)c2cccc([N+](=O)[O-])c2C)s1 (stereo not given),859 s
2,CCc1ccccc1NS(=O)(=O)c1ccc(CN2C(=O)c3ccccc3C2=O)cc1,954 s
3,O=C(CC1CCN(C(=O)c2ccc3oc(C4CC4)nc3c2)CC1)NCc1ccc2c(c1)OCO2,733 s
4,Cc1ccc(NC(=O)Cn2c(=O)nc(N3CCCC(C)C3)c3ccccc32)cc1C (stereo not given),895 s
5,Cc1onc(-c2ccccc2Cl)c1C(=O)NC1CC(=O)N(C2CC2)C1 (stereo not given),636 s
6,CCCCNC(=O)C1CCN(c2cc(N3CCSCC3)ncn2)CC1,631 s
7,O=C(c1ccc(-c2ccsc2)nc1)N1CCCCC1,792 s
8,O=C(O)c1ccccc1SC1CC(=O)N(c2ccccc2OC(F)F)C1=O (stereo not given),741 s
9,CC(C)NC(=O)N1CCC2(CC1)NCCc1c2[nH]c2ccccc12,618 s
10,Cc1cc(Cl)ccc1S(=O)(=O)N1CCn2c(nnc2C2CCN(C(C)C)C2)C1 (stereo not given),629 s
11,O=C(NCCN1CCN(C(=O)c2cccs2)CC1)c1ccc2nsnc2c1,550 s
12,COc1ccc(CCc2nc(-c3ccc4c(c3)nc(C)c(=O)n4C)no2)cc1,946 s
13,COc1cc(OC)c(NC(=O)N2CCC(n3cnc4cccnc43)CC2)cc1Cl,670 s
14,Cc1ccc(CNS(=O)(=O)c2cc(-c3nc(C(C)(C)C)cs3)cs2)cc1,1320 s
15,O=C(CN1CCN(C(=O)Nc2ccc(Cl)cc2)CC1=O)NC1CCCC1,690 s
16,COCCCNC(=O)CN1CC2=C(C1=O)C(c1ccccc1Cl)NC(=O)N2C (stereo not given),570 s
17,O=C(Cc1csc2nc(-c3ccccc3)cn12)NCc1ccc2c(c1)OCO2,744 s
18,Cc1nc(Nc2ccc(F)cn2)sc1C(=O)NCCC1=CCCCC1,963 s
19,Cc1sc(-c2nc(C(C)C)cs2)cc1S(=O)(=O)N1CCCCC1,1310 s
20,CCOC(=O)N1CCN(C(=O)CSc2nc(-c3cccc(C)c3)ns2)CC1,941 s
21,Cc1cc(NS(=O)(=O)c2c(C)sc(C)c2-c2n[nH]c(C)c2C)ccc1Br,1180 s
22,CC1CCN(c2nn(CC(=O)Nc3ccc(F)cc3)c(=O)c3ccccc23)CC1,1120 s
23,CC(C)Cn1c(=O)c(N2CCN(C(=O)NCCc3ccccc3)CC2)nc2ccncc21,668 s

row,SMILES,RP-LC retention time
1,CCCn1ncc(N2CCC(C(=O)N(C)Cc3cn(C)nc3C)CC2)cc1=O,619 s
2,C=C(C)CN1CC[C@]23c4c5ccc(O)c4O[C@H]2c2[nH]c4ccccc4c2C[C@@]3(O)[C@H]1C5,647 s
3,CCCS(=O)(=O)N1CC(=O)N(c2ccc(F)cc2F)C(C)(C(=O)NC2CCCCCC2)C1 (stereo not given),979 s
4,CCCC1CCC(C(=O)Nc2ccc3nc(N4CCN(c5ncccn5)CC4)cc(C)c3c2)CC1 (stereo not given),878 s
5,COc1cccc(N2CCN(C(=O)c3cc4sccc4n3C)CC2)c1,988 s
6,CC1CCN(C(=O)c2nnc(-c3ccc(S(=O)(=O)N4CCOCC4)cc3)o2)CC1,866 s
7,CCN(CC)CCCNC(=O)C1c2ccccc2C(=O)N(C)C1c1cccs1 (stereo not given),602 s
8,CCN1C(=O)c2cccc3c(S(=O)(=O)Nc4cccc(C)n4)ccc1c23,635 s
9,CCOC(=O)C1=C(CN2CCN(Cc3ccccc3)CC2)NC(=O)NC1c1ccc(OC(C)C)cc1 (stereo not given),713 s
10,Cc1ccccc1-n1c(=O)c2sccc2n(Cc2nc(-c3ccc(Cl)c(F)c3)no2)c1=O,1120 s
11,Cc1ccc(F)cc1NS(=O)(=O)c1ccc(-c2nnc(C3CCC3)o2)o1,931 s
12,C=CCn1nc2ccc(S(=O)(=O)N3CCC(C)CC3)cn2c1=O,843 s
13,Cc1cc(C)cc(Nc2c(-c3cccc(O)c3)nc3ncccn23)c1,719 s
14,O=C(Nc1ccc(SCc2nnc(-c3ccccc3)o2)cc1)c1cccs1,968 s
15,O=C(NC(c1ccccc1)c1nnc(N2CCCCC2)o1)C1CCCCC1 (stereo not given),878 s
16,CC(=O)N1CCc2sc(S(=O)(=O)N3CCN(c4cc(C)ccc4C)CC3)cc2C1,1010 s
17,Cn1c(C2CCN(C(=O)c3cc4c(s3)CCCC4)C2)nc2ccncc21 (stereo not given),562 s
18,COc1ccc(NC(=O)Cn2cnc(-c3nc(C)cs3)c2)cc1Cl,699 s
19,CCN(c1ccccc1)S(=O)(=O)c1ccc(C(=O)Nc2cc(C)nn2C(C)C)cc1,858 s
20,O=C(Nc1nnc(C2CC(=O)N(c3ccccc3)C2)o1)c1ccccn1 (stereo not given),620 s
21,CCOc1ccccc1NC(=O)N1CC(n2ccnc2C)C1,639 s
22,N#Cc1cnc2ccccc2c1N1CCC(C(=O)N2CCSCC2)CC1,658 s
23,Cc1ccc2[nH]cc(CCN3CC(C(=O)N4CCN(c5ccccc5)CC4)CC3=O)c2c1 (stereo not given),839 s

row,SMILES,RP-LC retention time
1,COc1ccc(-c2noc(CCCC(=O)Nc3nc(-c4ccccc4)cs3)n2)cc1OC,982 s
2,CS(=O)(=O)N1CCC(C2CCN(Cc3ccccc3C#N)C2)CC1 (stereo not given),590 s
3,O=C(COc1cccc(Br)c1)Nc1nc(-c2ccccc2)cs1,1130 s
4,O=C(NC1CC1)c1ncoc1-c1ccccc1C(=O)N1CCCCC1,689 s
5,Cc1nn2c(C)c(C(=O)OC(C)C)nnc2c1-c1ccc(F)cc1,1060 s
6,COc1ccccc1CNC1=NCCNC12CCN(S(=O)(=O)c1ccc(F)cc1)CC2,704 s
7,c1ccc(-c2nc(CC3CCCNC3)no2)cc1 (stereo not given),609 s
8,COc1ccccc1C(=O)NC1CCN(c2ccc(C)cc2)C1=O (stereo not given),870 s
9,CNC(=O)N1CC(C)Oc2ccc(Cl)cc21 (stereo not given),806 s
10,O=C(c1csc(-c2cccnc2)n1)N1CCN(c2ncccn2)CC1,648 s
11,Cc1ccccc1Nc1c(-c2ccccn2)nc2cnccn12,941 s
12,Clc1ccc(-c2noc(Cc3nnc(-c4cccc(Br)c4)o3)n2)cc1,1210 s
13,CCNC(=O)C1CCCN(c2nc3ncn(CC(=O)Nc4ccc(C)c(C)c4)c(=O)c3s2)C1 (stereo not given),711 s
14,CC1CCCN(S(=O)(=O)c2ccc(-n3cnc(C(=O)N4CCCCCC4)c3)nc2)C1 (stereo not given),920 s
15,Cc1ccc(-c2nc3ccccn3c2NC(=O)NCc2ccccc2)cc1,657 s
16,COc1ccc(S(=O)(=O)N2CC(=O)N(C3CCCC3)C3(CCCCC3)C2)cc1OC,1080 s
17,COc1cccc(Cc2nc(-c3cccc(-c4ccnn4C)c3)no2)c1,1010 s
18,N#CCN(c1ccc(F)cc1)S(=O)(=O)c1ccc2nncn2c1,669 s
19,Cn1c(=O)n(C)c2cc(CNCCc3ccc(Cl)cc3)ccc21,630 s
20,CCCCC(C)C(=O)NC1CCN(C2=NS(=O)(=O)C(c3ccc(C)cc3)=C2C)CC1 (stereo not given),935 s
21,Nn1nnc2ccccc21,651 s
22,O=C(NCCCn1cccn1)c1cn2ccccc2n1,570 s
23,CCNc1cc(N2CCCC(CCC(=O)N3CCN(c4ncccn4)CC3)C2)ncn1 (stereo not given),624 s

row,SMILES,RP-LC retention time
1,COc1ccccc1N1CCN(c2ncc(S(=O)(=O)c3ccc(C)cc3)c(N)n2)CC1,955 s
2,Cc1nc2nc(-c3ccc(C(C)(C)C)cc3)nn2c(C)c1CC(=O)Nc1ccc(Br)cc1,1220 s
3,CCc1ccc(NC(=O)N2CC(n3cnnc3C3CCOCC3)C2)cc1,599 s
4,CCCc1cc(N2CCN(C(=O)c3ccccc3)CC2)nc2nncn12,608 s
5,CCN1C(=O)c2cccnc2Sc2cc(C(=O)N3CCC(C)CC3)ccc21,798 s
6,COc1cccc(CNC(=O)Cn2cnc3nc(N4CCCC(C(=O)NC5CC5)C4)sc3c2=O)c1 (stereo not given),666 s
7,O=C(NCCc1ccccc1)Nc1cnc2c(c1)CCC2,536 s
8,CCn1cc(CCNC(=O)Nc2ccc(Br)cc2)c2cccnc21,802 s
9,Cc1cc(-c2c(C)sc(C)c2S(=O)(=O)NC2CCCc3ccccc32)n[nH]1 (stereo not given),1120 s
10,Cc1cccc(C)c1Nc1c(-c2ccccc2)nc2ncccn12,786 s
11,CCn1c(=O)oc2cc(-c3noc(CNC(=O)c4ccccc4)n3)ccc21,801 s
12,CC(NC(=O)C1=CCN(Cc2cccc(F)c2)CC1)c1ccccc1 (stereo not given),662 s
13,CC(C)[C@H](C(=O)Nc1ccc(C(=O)NO)cc1)c1ccccc1,791 s
14,O=C(Nc1ccc2c(c1)OCCO2)c1cc2c(s1)CN(C1CCCC1)C2,621 s
15,CCCNc1cc(N2CCC(CCC(=O)Nc3ccc(OC)cc3OC)CC2)ncn1,648 s
16,CC(CCc1ccccc1)NCc1ccc2c(c1)n(C)c(=O)n2C (stereo not given),610 s
17,O=C(CCc1cccc2[nH]ccc12)Nc1ccc(N2CCOCC2)cc1,845 s
18,Cc1ccc(-c2cc3n(n2)CCCN(C(=O)c2cc(CN4CCOCC4)on2)C3)o1,617 s
19,CCCCS(=O)(=O)N1CCc2c(c(-c3nnc(-c4ccc(F)cc4)o3)nn2C)C1,893 s
20,COc1ccc(C2CC(=O)N(CC(=O)NCC3CCCO3)c3ccccc3S2)cc1 (stereo not given),826 s
21,CC(C)Oc1cccc(NC(=O)C2CCN(S(C)(=O)=O)c3ccccc3O2)c1 (stereo not given),830 s
